Data reported in US20230027361A1, “METTL3 MODULATORS” (priority 2019, published 2023).
Read-outs that look alike come from different tables or passages of the source.

What was measured:
[1] = biological target: T1, METTL16 (Homo sapiens, UniProt Q86W50); experiment: METTL16 Assay (METTL16 biochemical assay); conditions: read-out: METTL16 IC50
T1 sequence (Q86W50 1-562): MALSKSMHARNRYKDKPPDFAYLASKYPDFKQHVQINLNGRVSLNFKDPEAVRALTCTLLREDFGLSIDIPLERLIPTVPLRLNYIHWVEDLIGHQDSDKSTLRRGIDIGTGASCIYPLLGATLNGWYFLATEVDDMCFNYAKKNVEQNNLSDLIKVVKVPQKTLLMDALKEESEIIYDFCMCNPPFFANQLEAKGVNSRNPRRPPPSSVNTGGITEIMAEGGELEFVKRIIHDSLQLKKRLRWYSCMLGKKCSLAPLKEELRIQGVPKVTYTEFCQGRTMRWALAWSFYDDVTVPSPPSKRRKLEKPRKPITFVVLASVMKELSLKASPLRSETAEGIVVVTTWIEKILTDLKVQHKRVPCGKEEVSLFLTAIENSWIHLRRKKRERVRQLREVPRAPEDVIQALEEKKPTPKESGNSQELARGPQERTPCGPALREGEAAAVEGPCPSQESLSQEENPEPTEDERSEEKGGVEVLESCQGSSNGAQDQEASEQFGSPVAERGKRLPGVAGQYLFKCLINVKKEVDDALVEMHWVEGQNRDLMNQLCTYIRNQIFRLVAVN
Experimental: Assays were performed in a 25 μl-volume in 384-well V-bottom polypropylene microplates (Greiner Bio-One, cat. No. 781280) at ambient temperature. Optimized 1× assay buffer was 20 mM HEPES pH 7.5, 50 mM KCl, 1 mM DTT, 0.01% Tween, 0.01% BSG, 0.004 U/μl RNAseOUT (cat. No. 10777019, ThermoFisher Scientific, Waltham, Mass.). For compound screening METTL16 (final concentration, f.c.=100 nM) was added using a Multidrop Combi (ThermoFisher Scientific, Waltham, Mass.) and preincubated for 5 min. Reactions were started by adding 3′ biotinylated RNA ([…]-biotin) (f.c.=50 nM), 3H-SAM (f.c.=200 nM) and non-radiolabeled SAM (f.c.=800 nM) substrates. Reactions proceeded for 20 minutes and were quenched with excess non-radioactive SAM (f.c.=100 μM). The reactions were then transferred to streptavidin-coated flashplates and incubated for 2 hours at 25° C. Following two washing cycles with 0.1% Tween-20, the plates were sealed and read on a TopCount (PerkinElmer, Waltham, Mass.) plate-based scintillation counter. For determination of kinetic parameters, reaction times were optimized so that measurements were taken during the initial velocity phase of the reaction.

[2] = biological target: PRMT5-MEP50 (Homo sapiens, UniProt O14744); experiment: PRMT5 Assay (PRMT5 biochemical assay)
Procedure, shortened: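 Radiometric methyltransferase read-out: after 60 min reaction, excess unlabelled SAM (15 μM) stops turnover and biotinylated H4 peptide (100 nM) carrying 3H-methyl from 250 nM 3H-SAM is captured on streptavidin flashplates (2 h, 25° C) for scintillation counting. Enzyme, 2.5 nM PRMT5-MEP50, was preincubated 5 min with compound in pH 8.0 Tris buffer with DTT and Tween.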

[3] = biological target: METTL3/METTL14 (Homo sapiens, UniProt Q86U44); experiment: METTL3-14 Standard Enzyme Assay (METTL3 biochemical assay)
Procedure, shortened: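 Tritium transfer from ³H-SAM (100 nM) to biotinylated RNA (100 nM) captured on streptavidin flashplates and counted by scintillation. Enzyme complex (2.5 nM) with compound, 5 min preincubation, 30 min reaction at ambient temperature, HEPES pH 7.5 buffer, stopped by excess unlabeled SAM.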

[4] = test system: MOLM-13 cells; experiment: MOLM-13 48 Hour Cell Proliferation Assay; type: cell-based; conditions: Homo sapiens
Procedure, shortened: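 IC50 derived by 4-parameter logistic regression of CellTiter-Glo luminescence, scaled between DMSO (0% death) and staurosporine (100% death) controls. Compounds applied for 48 h at 37 °C as 10-point, 4-fold dilutions, 0.25% DMSO final, to MOLM-13 cells pre-seeded overnight in RPMI 1640 plus 10% FBS.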

[5] = test system: m6A in cellular mRNA of MOLM-13 cells; experiment: m6A-mRNA LC-MS/MS Assay (m6A cellular assay); type: cell-based; conditions: Homo sapiens, MOLM-13, read-out: m^6A IC50
Experimental: Cells were harvested by centrifugation followed by mRNA extraction using DIRECT Dynabeads mRNA DIRECT kit (Life Technologies). mRNA was quantified on NanoDrop spectrophotometer (Thermo Fisher Scientific) and digested into single nucleosides using Nucleoside Digestion Mix (New England Biolabs). […] Quantification is performed in comparison with the standard curve, obtained from pure nucleoside standards (Selleck Chemicals) running with the same batch of samples. Percentage m^6A in cellular mRNA is calculated as 100*(m^6A/A).

[6] = biological target: METTL1/WDR4 (Homo sapiens, UniProt Q9UBP6); experiment: METTL1 Assay (METTL1 biochemical assay)
Procedure, shortened: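 Radiometric methyltransfer by METTL1/WDR4 (6.25 nM f.c., 5 min preincubation) at ambient temperature in HEPES pH 7.5, KCl, MgCl2, DTT; started with 25 nM 3′-biotinylated RNA and 60 nM 3H-SAM, run 20 min, quenched with 15 μM cold SAM. Product captured on streptavidin flashplates (2 h, 25° C), counted by scintillation.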

[7] = test system: MOLM-13 cells; experiment: MOLM-13 96 Hour Cell Proliferation Assay; type: cell-based; conditions: Homo sapiens, MOLM-13, 96 h
Procedure, shortened: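 MOLM-13 cells in RPMI 1640 with 10% FBS were plated overnight at 37 °C, then exposed to compound dilutions at 0.25% DMSO final for 96 h. Viability was read by CellTiter-Glo luminescence, normalised to staurosporine (100% death) and DMSO (0% death) controls, and IC50 was fitted by 4-parameter logistic regression.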

[8] = PRMT5 biochemical assay; read-out: PRMT5 IC50
[9] = METTL3 biochemical assay; read-out: METTL3 IC50

METTL3/METTL14, sequence (Q86U44 whole entry, species assumed): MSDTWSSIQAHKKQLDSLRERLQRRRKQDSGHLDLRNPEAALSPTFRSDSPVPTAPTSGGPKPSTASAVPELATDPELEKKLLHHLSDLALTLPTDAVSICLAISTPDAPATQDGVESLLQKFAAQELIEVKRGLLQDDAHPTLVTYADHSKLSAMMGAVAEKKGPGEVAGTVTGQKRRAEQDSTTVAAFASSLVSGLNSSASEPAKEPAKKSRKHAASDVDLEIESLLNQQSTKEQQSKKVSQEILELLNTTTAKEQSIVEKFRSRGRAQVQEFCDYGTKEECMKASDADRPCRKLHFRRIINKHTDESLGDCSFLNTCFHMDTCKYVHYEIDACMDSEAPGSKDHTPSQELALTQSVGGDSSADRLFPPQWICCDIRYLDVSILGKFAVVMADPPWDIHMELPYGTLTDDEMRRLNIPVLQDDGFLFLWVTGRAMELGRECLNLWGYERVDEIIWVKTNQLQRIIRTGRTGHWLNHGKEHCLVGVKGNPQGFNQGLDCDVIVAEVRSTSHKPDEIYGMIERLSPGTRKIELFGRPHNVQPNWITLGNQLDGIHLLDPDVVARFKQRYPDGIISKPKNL
METTL3/METTL14, sequence (Q9HCE5 whole entry partner, species assumed): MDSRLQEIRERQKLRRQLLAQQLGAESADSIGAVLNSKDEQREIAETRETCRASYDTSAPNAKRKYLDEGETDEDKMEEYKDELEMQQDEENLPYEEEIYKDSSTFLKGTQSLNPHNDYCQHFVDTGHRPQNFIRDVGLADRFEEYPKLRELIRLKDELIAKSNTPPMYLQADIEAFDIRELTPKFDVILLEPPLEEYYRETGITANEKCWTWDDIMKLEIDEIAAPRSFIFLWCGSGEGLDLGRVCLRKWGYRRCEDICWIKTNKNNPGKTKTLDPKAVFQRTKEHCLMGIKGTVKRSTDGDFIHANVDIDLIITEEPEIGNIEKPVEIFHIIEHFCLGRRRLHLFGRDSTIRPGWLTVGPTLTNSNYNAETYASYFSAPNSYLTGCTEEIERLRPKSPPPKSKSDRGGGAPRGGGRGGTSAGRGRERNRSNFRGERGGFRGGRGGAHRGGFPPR
PRMT5-MEP50, sequence (O14744 whole entry): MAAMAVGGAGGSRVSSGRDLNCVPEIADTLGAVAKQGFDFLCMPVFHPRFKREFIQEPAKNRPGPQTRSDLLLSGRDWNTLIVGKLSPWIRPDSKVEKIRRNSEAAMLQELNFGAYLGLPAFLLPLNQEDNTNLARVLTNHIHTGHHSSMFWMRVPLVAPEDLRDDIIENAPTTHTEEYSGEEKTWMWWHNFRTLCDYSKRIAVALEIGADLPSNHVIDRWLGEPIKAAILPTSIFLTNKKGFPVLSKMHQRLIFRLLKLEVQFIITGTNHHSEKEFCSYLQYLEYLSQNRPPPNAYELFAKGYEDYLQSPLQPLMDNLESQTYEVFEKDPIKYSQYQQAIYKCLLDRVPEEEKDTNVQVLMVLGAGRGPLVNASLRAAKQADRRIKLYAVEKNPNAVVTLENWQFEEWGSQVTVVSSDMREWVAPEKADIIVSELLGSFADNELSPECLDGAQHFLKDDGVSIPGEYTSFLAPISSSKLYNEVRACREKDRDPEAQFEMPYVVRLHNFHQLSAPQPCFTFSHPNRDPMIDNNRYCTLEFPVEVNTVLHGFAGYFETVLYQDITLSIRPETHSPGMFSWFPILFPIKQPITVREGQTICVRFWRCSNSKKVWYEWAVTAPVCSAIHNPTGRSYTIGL
PRMT5-MEP50, sequence (Q9BQA1 whole entry partner): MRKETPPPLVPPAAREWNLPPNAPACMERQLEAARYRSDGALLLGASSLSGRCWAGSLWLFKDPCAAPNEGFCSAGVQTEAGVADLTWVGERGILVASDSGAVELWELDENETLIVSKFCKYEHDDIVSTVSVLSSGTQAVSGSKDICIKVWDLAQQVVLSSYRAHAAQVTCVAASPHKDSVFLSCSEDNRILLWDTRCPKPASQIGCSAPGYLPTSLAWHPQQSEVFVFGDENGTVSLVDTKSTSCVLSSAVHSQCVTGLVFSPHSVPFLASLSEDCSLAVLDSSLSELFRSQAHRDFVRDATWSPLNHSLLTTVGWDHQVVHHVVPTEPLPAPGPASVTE
METTL1/WDR4, sequence (Q9UBP6 whole entry, species assumed): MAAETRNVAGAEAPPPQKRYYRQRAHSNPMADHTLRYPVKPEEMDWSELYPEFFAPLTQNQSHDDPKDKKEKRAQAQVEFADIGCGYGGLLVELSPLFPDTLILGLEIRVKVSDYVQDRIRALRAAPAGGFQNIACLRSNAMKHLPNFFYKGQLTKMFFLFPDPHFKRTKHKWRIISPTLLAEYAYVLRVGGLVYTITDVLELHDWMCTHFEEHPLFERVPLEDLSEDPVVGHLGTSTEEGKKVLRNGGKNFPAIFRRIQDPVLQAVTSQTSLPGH
METTL1/WDR4, sequence (P57081 whole entry partner, species assumed): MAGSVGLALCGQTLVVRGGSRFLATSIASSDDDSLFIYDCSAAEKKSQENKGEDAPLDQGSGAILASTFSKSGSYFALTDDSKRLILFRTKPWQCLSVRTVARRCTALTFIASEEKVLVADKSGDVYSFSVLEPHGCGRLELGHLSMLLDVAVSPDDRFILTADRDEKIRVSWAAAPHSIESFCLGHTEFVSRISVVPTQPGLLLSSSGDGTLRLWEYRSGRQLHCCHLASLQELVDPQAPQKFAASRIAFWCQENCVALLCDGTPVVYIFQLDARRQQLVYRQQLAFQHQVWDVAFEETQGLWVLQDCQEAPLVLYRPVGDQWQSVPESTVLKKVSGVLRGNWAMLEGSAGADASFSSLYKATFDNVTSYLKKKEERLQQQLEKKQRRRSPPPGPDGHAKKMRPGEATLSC

| SMILES | IC50 [1] [nM] | IC50 ([2]; read-out: PRMT5 IC50; PRMT5 biochemical assay) [nM] | IC50 ([3]; read-out: METTL3 IC50; METTL3 biochemical assay) [nM] | IC50 [4] [nM] | IC50 [5] [nM] | IC50 [2, 8] [nM] | IC50 [3, 9] [nM] | IC50 [6] [nM] | IC50 [7] [nM] |
| --- | --- | --- | --- | --- | --- | --- | --- | --- | --- |
| CNc1ccc2ccc(OC[C@H]3O[C@@H](n4cc(-c5cn(C)cn5)c5c(N)ncnc54)[C@@H](F)[C@@H]3O)cc2n1 [I-28] | > 1000 | 100 to 1000 | < 10 | 1000 to 10000 | 1000 to 10000 |  |  |  |  |
| CNc1ccc2ccc(CC[C@H]3C[C@@H](n4cc(CO)c5c(N)ncnc54)[C@H](O)[C@@H]3O)cc2n1 [I-52, (1R,2S,3R,5S)-3-[4-amino-5-(hydroxymethyl)-7H-pyrrolo[2,3-d]pyrimidin-7-yl]-5-{2-[2-(methylamino)quinolin-7-yl]ethyl}cyclopentane-1,2-diol] | > 1000 |  |  |  | 1000 to 10000 | < 10 | < 10 | > 1000 |  |
| CCNc1ccc2ccc(OC[C@H]3O[C@@H](n4cc(Cl)c5c(N)ncnc54)[C@@H](F)[C@@H]3O)cc2n1 [I-234] |  |  |  | 1000 to 10000 | 1000 to 10000 | 10 to 100 | < 10 | > 1000 | 1000 to 10000 |
